Results on 11 compounds are retold here after patent publication US8076329B2, “Histamine H3-receptor ligands and their therapeutic applications” (Bioprojet, priority 2005, dated 2011).

Each structure is given as a SMILES string. pKi: −log10 of the molar value. Structures can show the parent of a compound that is named as a salt. A value given as a limit tells only on which side of the number the result lay.

In one data set the target is CYP2D6 (Homo sapiens, UniProt P10635). Kind of data set: Cytochrome inhibition, fluorometric microtiter plate assay. In kind it is in vitro ADME. As to conditions: CYP2D6 cytochrome inhibition (IC50, concentrations in μM for 50% inhibition), human recombinant CYP2D6, substrate AMMC; compounds of the invention. As for the experimental part:
(§1) The ability of drug in human to inhibit the catalytic activity of cytochrome P-450 isoforms was assayed using microtiter plate-based, fluorometric assays for the activities of the five human major CYP forms. Inhibition potential was determined in vitro after incubation of fluorescent model substrates over various incubation time with human recombinant cytochrome isoforms in the absence or in presence of increasing concentrations of test molecules (from 1 nM to 100 μM), in comparison with specific CYP isoform inhibitors.
(§2) Incubation of drug was carried out at 37° C.±0.5° C. under agitation in the presence of human recombinant cytochrome P-450 isoforms and a NADPH generating system. The incubation conditions for each cytochrome isoform were as follows: […]

Another data set has as its target CYP3A4 (Homo sapiens, UniProt P08684). The data set is described as above. The settings on record: CYP3A4 cytochrome inhibition (IC50, concentrations in μM for 50% inhibition), human recombinant CYP3A4, substrate BFC; compounds of the invention. In kind it is in vitro ADME. As for the experimental part: as §1, §2
Data set [1] deals with human histamine H3 receptors (Homo sapiens, UniProt Q9Y5N1). Kind of data set: H3 binding ([125I]iodoproxyfan displacement on membranes). As to conditions: compounds of the invention; membranes expressing human H3 receptors. As to the method:
Membranes expressing human histamine H3 receptors were incubated 1 hour at room temperature in binding buffer containing 50 mM Na2HPO4/KH2PO4 pH 7.5 in a final volume of 200 μl. […] The reaction was stopped by rapid filtration through GF/B filters (pre-soaked for 2 hours with 0.3% polyethyleneimine) followed by 3 ice cold binding buffer washes. The filter-bound radioactivity was measured in a liquid scintillation counter with 50 μl of scintillation fluid.

CYP3A4, sequence (P08684 whole entry): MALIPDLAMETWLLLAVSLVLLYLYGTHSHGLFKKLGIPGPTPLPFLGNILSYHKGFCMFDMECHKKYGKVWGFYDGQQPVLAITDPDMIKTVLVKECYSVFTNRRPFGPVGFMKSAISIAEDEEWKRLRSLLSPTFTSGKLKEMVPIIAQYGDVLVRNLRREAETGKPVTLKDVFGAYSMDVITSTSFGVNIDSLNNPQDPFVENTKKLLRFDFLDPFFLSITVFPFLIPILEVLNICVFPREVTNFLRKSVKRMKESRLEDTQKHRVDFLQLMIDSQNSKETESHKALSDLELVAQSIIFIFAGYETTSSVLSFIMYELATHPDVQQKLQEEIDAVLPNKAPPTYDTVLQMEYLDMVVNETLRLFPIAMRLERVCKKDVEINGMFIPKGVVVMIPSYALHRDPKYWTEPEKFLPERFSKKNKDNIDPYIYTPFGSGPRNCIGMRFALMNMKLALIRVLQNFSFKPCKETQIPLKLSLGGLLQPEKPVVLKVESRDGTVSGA
CYP2D6, sequence (P10635 whole entry, canonical isoform): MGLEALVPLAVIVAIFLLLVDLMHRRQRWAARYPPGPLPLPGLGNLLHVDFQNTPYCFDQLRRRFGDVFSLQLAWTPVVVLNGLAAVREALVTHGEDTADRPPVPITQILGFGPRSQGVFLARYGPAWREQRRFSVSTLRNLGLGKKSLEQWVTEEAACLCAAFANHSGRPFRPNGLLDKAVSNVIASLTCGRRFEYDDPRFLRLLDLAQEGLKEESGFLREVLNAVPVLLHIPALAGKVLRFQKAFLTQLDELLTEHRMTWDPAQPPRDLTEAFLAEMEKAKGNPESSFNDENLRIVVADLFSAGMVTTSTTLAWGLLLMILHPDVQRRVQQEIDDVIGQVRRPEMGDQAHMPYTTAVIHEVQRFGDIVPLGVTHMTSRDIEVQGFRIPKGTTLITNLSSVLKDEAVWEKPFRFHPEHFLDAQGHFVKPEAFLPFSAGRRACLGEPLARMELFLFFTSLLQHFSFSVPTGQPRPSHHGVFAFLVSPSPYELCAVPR
human histamine H3 receptors, sequence (Q9Y5N1 whole entry): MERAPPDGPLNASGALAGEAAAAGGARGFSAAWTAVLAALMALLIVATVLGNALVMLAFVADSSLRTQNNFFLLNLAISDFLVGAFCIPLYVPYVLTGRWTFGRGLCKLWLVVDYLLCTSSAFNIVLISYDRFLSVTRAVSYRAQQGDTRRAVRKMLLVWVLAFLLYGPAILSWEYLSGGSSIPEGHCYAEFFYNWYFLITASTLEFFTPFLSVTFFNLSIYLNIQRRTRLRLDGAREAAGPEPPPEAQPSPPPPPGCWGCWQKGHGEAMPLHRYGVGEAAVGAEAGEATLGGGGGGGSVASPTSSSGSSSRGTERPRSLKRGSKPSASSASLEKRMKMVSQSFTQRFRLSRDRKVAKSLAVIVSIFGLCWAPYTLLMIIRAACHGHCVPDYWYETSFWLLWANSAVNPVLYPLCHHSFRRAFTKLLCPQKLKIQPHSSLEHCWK

In turn, `C[C@H]1C[C@H](C)CN(CCCOc2ccc([C@H]3CC[C@H](N(C)C)CC3)cc2)C1` (as salt: hydrochloride) [Example 12, (3S,5S)-1-{3-[4-(trans-4-dimethylaminocyclohex-1-yl)phenoxy]propyl}-3,5-dimethylpiperidine] had a melting point of 240 °C.

`c1cc(-c2ccc(OCCCN3CCCCC3)cc2)ccc1CCCN1CCCCC1` (as salt: oxalate) [Example 48]: the melting point is 130 °C.

As for `CC1CCCN1CCCOc1ccc([C@H]2CC[C@H](O)CC2)cc1` (stereo partly drawn) (as salt: oxalate) [Example 66, 1-{3-[trans-4-(4-hydroxycyclohexyl)phenoxy]propyl}-2-methylpyrrolidine], the melting point was 80 °C.

In turn, `O=C(O)C(=O)O.O=C(O)C(=O)O.c1cc(C2=NCCCC2)ccc1OCCCN1CCCCC1` [Example 15, 6-[4-(3-piperidinopropoxy)phenyl]-2,3,4,5-tetrahydropyridine] had a melting point of 104 °C. Besides, on CYP2D6, the IC50 is > 10 µM. In addition, on CYP3A4, the IC50 is 46 µM.

Turning to `Cc1ccc(-c2ccc(OCCCN3CCCCC3)cc2)cc1.O=C(O)C(=O)O` [Example 24, 1-{3-[(4′-methylbiphenyl-4-yl)oxy]propyl}piperidine], the melting point stood at 195 °C. Also, in data set [1], the negative logarithm of the Ki (pKi) was 8.46. Further, the IC50 at CYP2D6 was > 10 µM. The 50% inhibitory concentration (IC50) on CYP3A4 is > 10 µM.

As for `c1cc(-c2ccc(OCCCN3CCCC3)cc2)ccc1OCCCN1CCCCC1` [Example 37, 1-(3-{[4′-(3-piperidinopropoxy)biphenyl-4-yl]oxy}propyl)pyrrolidine], the melting point lay in the range of 105 to 108 °C. Besides, at CYP2D6, the 50% inhibitory concentration (IC50) is > 10 µM. The concentration for half-maximal inhibition (IC50) on CYP3A4 amounted to 15 µM.

With `c1cc(-c2ccc(OCCCN3CCCCC3)cc2)ccc1CN1CCCCC1` [Example 42, 1-(3-{[4′-(piperidinomethyl)biphenyl-4-yl]oxy}propyl)piperidine], the melting point was determined as 90 °C. Also, the 50% inhibitory concentration (IC50) on CYP2D6 is > 10 µM. The IC50 at CYP3A4 is > 10 µM.

`C(#Cc1ccc(OCCCN2CCCCC2)cc1)CCN1CCCCC1.O=C(O)C(=O)O.O=C(O)C(=O)O` [Example 43, 1-{3-[4-(4-Piperidinobut-1-yn-1-yl)phenoxy]propyl}piperidine] came in with a melting point of 167 °C. Besides, the half-maximal inhibitory concentration (IC50) on CYP2D6 was > 1 µM. Further, the IC50 at CYP3A4 was > 10 µM.

`C[C@H]1CCCN(CCCOc2ccc(-c3ccnc(O)c3)cc2)C1.O=C(O)C(=O)O` [Example 55, 2-hydroxy-4-(4-{3-[(3S)-3-methylpiperidin-1-yl]propoxy}phenyl)pyridine] displayed a melting point of 110 °C. Moreover, on CYP2D6, the IC50 is > 10 µM. In addition, the IC50 at CYP3A4 is > 10 µM.

`C[C@H]1CCCN(CCCOc2ccc(-c3ccnc(Cl)c3)cc2)C1.O=C(O)C(=O)O.O=C(O)C(=O)O` [Example 56, 2-chloro-4-(4-{3-[(3S)-3-methylpiperidin-1-yl]propoxy}phenyl)pyridine] had a melting point of 143 °C. Besides, on CYP2D6, the IC50 was > 10 µM. Further, the IC50 on CYP3A4 is > 1 µM.

`Cc1cc(-c2ccc(OCCCN3CCC[C@H](C)C3)cc2)ccn1.O=C(O)C(=O)O.O=C(O)C(=O)O` [Example 59, 2-methyl-4-(4-{3-[(3S)-3-methylpiperidin-1-yl]propoxy}phenyl)pyridine] registered a melting point of 97 °C. Moreover, at CYP2D6, the IC50 is > 10 µM. For the same compound, at CYP3A4, the IC50 was > 10 µM.
